Legend:
Test in all cases: IC50 (cell viability, 72 h) (ln(µM))
[1] = tested on: ORL-214
Method: (§1)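 Discovery screen of OSCC cell lines in 1,536-well plates. Cells were treated 24 h after seeding with 7 concentrations spanning a 1,000-fold half-log range for 72 h, and viability was read by CellTiter-Glo 2.0 and normalised to DMSO (1) and medium-only (0) controls. IC50 comes from a two-parameter logistic nonlinear mixed-effects fit and is reported as natural log of IC50 in µM.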

[2] = tested on: ORL-115
Method: as §1

[3] = tested on: ORL-48
Method: as §1

[4] = tested on: BICR10
Method: as §1

[5] = tested on: SAS
Method: as §1

[6] = tested on: ORL-136
Method: as §1

[7] = tested on: HSC-4
Method: as §1

[8] = tested on: ORL-174
Method: as §1

[9] = tested on: ORL-188
Method: as §1

[10] = tested on: HO-1-u-1
Method: as §1

[11] = tested on: ORL-195
Method: as §1

[12] = tested on: ORL-207
Method: as §1

[13] = tested on: ORL-150
Method: as §1

[14] = tested on: HSC-2
Method: as §1

[15] = tested on: ORL-215
Method: as §1

[16] = tested on: ORL-204
Method: as §1

[17] = tested on: SCC-9
Method: as §1

[18] = tested on: ORL-166
Method: as §1

[19] = tested on: ORL-156
Method: as §1

[20] = tested on: PE-CA-PJ15
Method: as §1

[21] = tested on: ORL-153
Method: as §1

SMILES	IC50 (ln) [1]	IC50 (ln) [2]	IC50 (ln) [3]	IC50 (ln) [4]	IC50 (ln) [5]	IC50 (ln) [6]	IC50 (ln) [7]	IC50 (ln) [8]	IC50 (ln) [9]	IC50 (ln) [10]	IC50 (ln) [11]	IC50 (ln) [12]	IC50 (ln) [13]	IC50 (ln) [14]	IC50 (ln) [15]	IC50 (ln) [16]	IC50 (ln) [17]	IC50 (ln) [18]	IC50 (ln) [19]	IC50 (ln) [20]	IC50 (ln) [21]
CC(=O)O[C@@]12CO[C@@H]1C[C@H](O)[C@@]1(C)C(=O)[C@H](O)C3=C(C)[C@@H](OC(=O)[C@H](O)[C@@H](NC(=O)OC(C)(C)C)c4ccccc4)C[C@@](O)([C@@H](OC(=O)c4ccccc4)[C@H]21)C3(C)C [Docetaxel]	-6.46	-4.57	-6.36	-5.07	-3.91	-2.74	-4.06	-6.19	-7	-4.77	-5.11	-6.77	-6.63	-6.54	-6.3	-5.44	-3.63	-5.53	-4.72	-3.61	-5.35
CCNC(=O)c1noc(-c2cc(C(C)C)c(O)cc2O)c1-c1ccc(CN2CCOCC2)cc1 [Luminespib]	-4.45	-1.26	-4.29	-3.95	-3.87	-3.13	-2.55	-4.47	-4.38	-4.16	-4.03	-4.84	-3.97	-4.34	-3.76	-2.64	-2.72	-2.05	-3.29	-2.87	-3.79
CC(C)C[C@@H](C=O)NC(=O)[C@H](CC(C)C)NC(=O)[C@H](CC(C)C)NC(=O)OCc1ccccc1 [MG-132]	-1.68	-0.897	-1.04	-0.312	-1.28	-1.24	-0.832	-1.61	-1.21	-1.98	-1.32	-1.48	-0.689	-1.34	-1.39	-1.04	-0.805	-1.11	-0.951	-0.875	-1.31

Source: the supplement of paper PMC11551840
